According to paper PMC10303838, “Atlantic Salmon Gill Epithelial Cell Line (ASG-10) as a Suitable Model for Xenobiotic Biotransformation” (Metabolites, 2023):
Structures can show the parent of a compound that is named as a salt. Where two headings read alike, the source gives them in different places.

Tests used:
[1] = UGT activities in salmon liver microsomes (SLMs) and S9; details: SLMs (2 mg/mL) and S9 (4 mg/mL), 20 °C, up to 60 min
[2] = cited from earlier work
[3] = parameters: method as in PMID 1897251; details: rainbow trout, within 3 h, mainly as AcBZ; cited from earlier work
[4] = tested on: ASG-10; assay: Alamar Blue assay, metabolic activity/viability of ASG-10; format: cell-based, Atlantic salmon (Salmo salar); details: ASG-10, 121 or 303 µM BZ, 24 h
Procedure: Alamar Blue assay: The metabolic activity/viability of the ASG-10 cell line was measured using the Alamar Blue assay according to the manufacturer’s protocol (Thermo Fisher). After exposure to test compounds with potential cell toxicity, Alamar Blue was added to the cell culture, and incubated for 3 h. […] The fluorescence (excitation: 555 nm/emission: 585 nm) was quantified using a Spectramax i3x plate reader (Molecular Devices, San Jose, CA, USA).

[5] = tested on: methemoglobin; parameters: method as in PMID 32974865; details: immersion in a sedating BZ dose or repeated anesthesia; cited from earlier work
[6] = parameters: method as in doi:10.1016/S0166-445X(96)00792-8; details: channel catfish; cited from earlier work
[7] = tested on: Zebrafish embryos; parameters: method as in PMID 27571242; details: 48 h exposure; cited from earlier work
[8] = parameters: method as in doi:10.5772/intechopen.91700; details: cited from earlier work
[9] = cited from earlier work; remark: listed apart in the source
[10] = tested on: ASG-10; assay: CellTox Green cytotoxicity assay in ASG-10; format: cell-based, Atlantic salmon (Salmo salar); details: ASG-10, 121 or 303 µM BZ, 48 h
Procedure: CellTox™ Green assay: The non-toxic dye CellTox™ Green stains DNA in cells with impaired membrane integrity. Binding interactions with DNA produce a fluorescence signal that is proportional to cytotoxicity (necrotic, late apoptotic cells). CellTox™ Green dye was added to the cells as described by the manufacturer (Promega) and fluorescence visualized by microscopy (Zeiss Observer A1, Carl Zeiss, Oberkochen, Germany).

[11] = tested on: CYP1A; parameters: method as in doi:10.1002/etc.5620160509; details: PLHC-1, 24 h; cited from earlier work
[12] = tested on: CYP1A; parameters: method as in PMID 1897246; details: rainbow trout liver primary cells, 3.6 to 360 nM BNF, 48 h, dose-dependent; cited from earlier work
[13] = tested on: CYP1A; assay: CYP1A immunochemical analysis (immunoblot) in BNF-stimulated ASG-10; format: cell-based, Atlantic salmon (Salmo salar); details: 24 h
Procedure: The ASG-10 cells were seeded into 6-well plates as described in Section 2.2. After two days, the cells were stimulated with BNF (1–100 nM, 24 h), a well-known non-toxic inducer of CYP1A protein expression. After exposure, the cells were washed twice in ice-cold PBS and placed at −70 °C until the next day. The cells were then scraped in cell lysis buffer with 0.8% SDS and 1% proteinase inhibitor cocktail added and centrifuged (10,000× g, 1 min) through use of the QIAshredder for homogenization. The protein concentrations were quantified by using the Bio-Rad DC kit (Hercules, CA, USA) and the samples were adjusted to equal protein concentration with lysis buffer before being denatured through the addition of NuPage lithium dodecyl sulfate (LDS) sample buffer and NuPage reducing agent as described by the manufacturer (Invitrogen, Waltham, MA, USA). Blotting was performed using the NuPage Novex system from Invitrogen (Thermo Fisher), applying […] protein per well on a 4–12% NuPage BisTris gel. Separation was performed under reducing conditions for 40 min at 200 V in 3-(N-morpholino) propane sulfonic acid (MOPS)–SDS running buffer using the Novex Sharp pre-stained standard with a range of 3.5–260 kDa. […]

[14] = tested on: CYP1A1; parameters: method as in PMID 12413795; details: BNF exposure; cited from earlier work
[15] = tested on: CYP1A; parameters: method as in PMID 10630570; details: primary carp hepatocytes, 20 nM, 18 h; cited from earlier work
[16] = tested on: CYP1A; assay: EROD assay in BNF-stimulated ASG-10; format: cell-based, Atlantic salmon (Salmo salar); details: ASG-10, BNF 1 to 100 nM, 24 h
Procedure: CYP1A induction in BNF-stimulated ASG-10 was measured using the ethoxyresorufin-O-deethylase (EROD) assay. CYP1A converts 7-ethoxyresorufin to resorufin, which can be measured by fluorescence spectroscopy. The assay was performed as described in [17], with minor modifications. Briefly, the cells were seeded in a black 96-well plate as described in Section 2.2. After two days, the cells were incubated with the CYP1A inducer β-naphthoflavone (BNF; 1–100 nM) for 24 h. BNF was dissolved in DMSO. The final DMSO concentration in the cell culture was 0.1%. Appropriate controls containing the same amount of DMSO were included in each experiment. The next day, the culture medium was replaced with 200 µL EROD assay media (DMEM w/o phenol red; 10% FBS, 8 µM 7-ethoxyresorufin), and resorufin fluorescence (excitation: 530 nm/emission: 580 nm) was detected after 60 min using a Spectramax i3x plate reader.

[17] = tested on: CYP1A; parameters: method as in doi:10.1002/etc.5620160509; details: cited from earlier work
[18] = tested on: CYP3A27; parameters: method as in doi:10.1002/etc.5620161220; details: juvenile Atlantic salmon; cited from earlier work
[19] = tested on: CYP2K1; parameters: method as in doi:10.1002/etc.5620161220; details: juvenile Atlantic salmon; cited from earlier work
[20] = tested on: CYP1A1; parameters: method as in doi:10.1002/etc.5620161220; details: juvenile Atlantic salmon; cited from earlier work
[21] = tested on: ASG-10; assay: CYP activities in ASG-10: metabolite formation from specific substrates (LC-TQMS); details: non-induced cells, combined substrates 2; 5; 10 µM, 24 h, 19 °C
[22] = BZ metabolism in SLMs and S9 (LC-HRMS/MS); details: SLMs 1 µM BZ, S9 3 µM BZ (Figure 9 legend: 1 µM), 1 h
Procedure: The production of BZ-related metabolites was determined by liquid chromatography high-resolution tandem mass spectrometry (LC-HRMS/MS).
Additionally, BZ metabolism was investigated in SLMs (1 µM BZ) and S9 (3 µM BZ) (Table 1). The incubations were first performed separately for phase I and phase II metabolism, and a combined assay was performed afterwards. The reaction mixture (total assay volume 0.5 mL) contained 0.8 mM NADPH, 0.7 mM NADP+, 7.5 mM UDPGA and 0.3 mM UDPAG. Aliquots (150 µL) were drawn at 0, 30 and 60 min and mixed with an equal volume of ice-cold 100% MeCN. […] After filtration (Costar Spin-X® 0.22 mm Nylon filter; Corning, Inc.; Corning, NY, USA), the concentrated samples were analyzed using LC-HRMS/MS.
(§1) BZ biotransformation products were determined using a Q Exactive™ hybrid quadrupole-Orbitrap mass spectrometer equipped with a heated electrospray ion source (HESI-II) and coupled to a Vanquish UHPLC system (Thermo Fisher Scientific). […]
(§2) Mass spectra were acquired in the full scan mode, applying sequential data-dependent top 5 analysis (ddMS2-top5) with an inclusion list containing masses of interest. […] BZ and BZ-related compounds were determined by targeted parallel reaction monitoring (PRM). […]

[23] = tested on: ASG-10; assay: BZ metabolism in ASG-10 (LC-HRMS/MS); format: in vitro ADME, Atlantic salmon (Salmo salar); details: 303 µM BZ, 24 h, 45,000 or 90,000 cells/well, LC-HRMS peak areas
Procedure: BZ, an anesthetic commonly used in aquaculture, was used to evaluate the potential activity of N-acetyltransferases (NAT) and esterases in ASG-10, SLMs and S9. The production of BZ-related metabolites was determined by liquid chromatography high-resolution tandem mass spectrometry (LC-HRMS/MS). When available, reference standards were used for the specification of metabolites.
BZ metabolism was investigated in ASG-10 cells plated in a 96-well plate as described in Section 2.2. The culture medium was replaced by fresh medium containing BZ (Table 1).
as §1, §2
The mobile phase was composed of solvent A (water) and solvent B (MeOH), both containing 0.1% formic acid. […] Raw data were acquired by Xcalibur (Version 4.0, Thermo Fisher Scientific), and molecular formula assignments and mass error were evaluated within the same software (Elemental Composition tab). […]

[24] = CYP activities in salmon liver microsomes (SLMs) and S9; details: both SLMs (2 mg/mL protein) and S9 (4 mg/mL protein), 20 °C, up to 60 min
[25] = Incubation of N-acetylated BZ (AcBZ) in SLMs, hydroxylation; format: in vitro ADME, Atlantic salmon; details: AcBZ as starting substance, 1 h
Procedure: A volume of 30 µL of 1 mg/mL BZ in 100% MeOH was evaporated (40 °C, N2) in a 1.5 mL vial. The residue was redissolved in 100 µL acetic anhydride (Sigma) and 100 µL pyridine (Sigma). The vial was placed at room temperature for 18 h. Subsequently, the reaction was stopped by the addition of 200 µL 100% MeOH. After evaporation, the residue was dissolved in 150 µL 100% MeOH (solution A). As control, 30 µL of BZ solution was evaporated and re-dissolved in 150 µL 100% MeOH (solution B). Afterwards, 3 µL of solutions A and B were incubated in SLMs as described above.

[26] = different fish species including rainbow trout and Atlantic salmon

Question: For C=CCN1CC[C@]23c4c5ccc(O[C@@H]6O[C@H](C(=O)O)[C@@H](O)[C@H](O)[C@H]6O)c4O[C@H]2C(=O)CC[C@@]3(O)[C@H]1C5 [NLX-GlcA, naloxone-3β-D glucuronide], which “Formation of UGT-specific metabolites in SLMs and S9” value [1] is on record?
Answer: highest metabolite level

Question: What does the source list for CCOC(=O)c1ccc(N)cc1 [BZ, ethyl 4-aminobenzoate]?
Answer: distribution volumes [2, 26]: rather high; mean residence times [2, 26]: below 15 min; plasma half-life ([2]; salmonids): less than 2 h; time to maximal concentrations in blood ([2]; under water exposure): less than 2 min; share of applied BZ dose eliminated through the gills [3]: about 59%; Metabolic activity or viability (Alamar Blue) [4]: did not affect; blood levels of methemoglobin [5]: increased blood levels of methemoglobin; time detected in most tissues after water exposure to BZ [6]: up to 144 h; AcBZ and PABA together as share of the total BZ amount [7]: 90%; n-octanol/water coefficient (pKOW) [8]: 1.44; solubility in more lipidic solvents relative to water ([9]; MeOH and chloroform): ~1000 times; water solubility ([9]; non-salt BZ, 20 °C): 400 µg/mL; Cytotoxicity (Celltox Green assay) [10]: no cytotoxicic effects

Question: For CN1CCN(CCCN2c3ccccc3Sc3ccc(C(F)(F)F)cc32)CC1 [TFP, trifluoperazine dihydrochloride], which “Formation of UGT-specific metabolites in SLMs and S9” value [1] is on record?
Answer: not measurable

Question: With O=c1cc(-c2ccccc2)oc2ccc3ccccc3c12 [BNF, β-naphthoflavone] as the compound, how does the “BNF concentration required to produce a detectable CYP1A protein increase” value [11] read?
Answer: 1 µM

Question: What about the “maximum EROD rate increase” value [12] of the same compound?
Answer: nine-fold

Question: What about the CYP1A protein increase ([13]; ASG-10, 1 nM BNF) of the same compound?
Answer: visible CYP1A protein increase

Question: And the “CYP1A protein (immunochemical analysis)” value ([13]; ASG-10, BNF 1 to 100 nM)?
Answer: concentration-dependent increase

Question: And the “CYP1A1 induction in salmon liver” value [14]?
Answer: can be induced

Question: And the “increase in the EROD rate” value [15]?
Answer: 30 fold

Question: And the “CYP1A enzyme activity (EROD assay)” value [16]?
Answer: concentration-dependent increase

Question: And the “increase in EROD enzyme activity” value ([17]; PLHC-1, 100 nM BNF)?
Answer: eightfold

Question: And the “increase in EROD enzyme activity” value ([17]; PLHC-1, 1 µM BNF)?
Answer: 100 fold

Question: With CC(=O)NCCc1c[nH]c2ccc(O[C@@H]3O[C@H](C(=O)O)[C@@H](O)[C@H](O)[C@H]3O)cc12 [NAS-GlcA, N-acetyl serotonin β-D-glucuronide] as the compound, how does the “Formation of UGT-specific metabolites in SLMs and S9” value [1] read?
Answer: low

Question: For CCCCCCCCCc1ccc(O)cc1 [4-nonylphenol], which “CYP3A27 activity in liver” value [18] is on record?
Answer: dose-dependently reduced

Question: And the “CYP2K1 activity in liver” value [19]?
Answer: dose-dependently reduced

Question: What about the “CYP1A1 activity in liver” value [20] of the same compound?
Answer: dose-dependently reduced

Question: For CN1CC[C@@]23CCCC[C@@H]2[C@@H]1Cc1ccc(O)cc13 [DOR, dextrophan], which “Formation of metabolites of specific CYP substrates in ASG-10” value [21] is on record?
Answer: observed

Question: With Nc1ccc(C(=O)O)cc1 [PABA, p-aminobenzoic acid] as the compound, how does the “BZ metabolites in SLM and S9 incubations” value [22] read?
Answer: not detectable

Question: Which “BZ metabolites produced in ASG-10 cells” value [23] does the source give for CCOC(=O)c1ccc(NO)cc1 [BZOH, Benzocaine hydroxylamine] here?
Answer: produced

Question: With O=c1[nH]c2cc(Cl)c(O)cc2o1 [6-OH-CH, 6-hydroxychlorzoxazone] as the compound, how does the “Formation of CYP-specific metabolites / substrate conversion in SLMs and S9” value [24] read?
Answer: low

Question: With CC(=O)Nc1ccc(C(=O)O)cc1 [AcPABA, p-acetaminobenzoic acid] as the compound, how does the “time detected in most tissues after water exposure to BZ” value [6] read?
Answer: up to 144 h

Question: For CCOC(=O)c1ccc(NC(C)=O)cc1 [AcBZ, acetylbenzocaine], which “time detected in most tissues after water exposure to BZ” value [6] is on record?
Answer: up to 144 h

Question: And the “BZ metabolites produced in ASG-10 cells” value [23]?
Answer: major biotransformation product

Question: And the “Hydroxylation product after incubation in SLMs” value [25]?
Answer: no longer detectable

Question: For Cc1ncc2n1-c1ccc(Cl)cc1C(c1ccccc1F)=NC2O (stereo not shown) [4-OH-MDZ, 4-hydroxymidazolam], which “Formation of metabolites of specific CYP substrates in ASG-10” value [21] is on record?
Answer: observed
